{"source": "paper PMC6368365", "about": "“Didehydro-Cortistatin A Inhibits HIV-1 by Specifically Binding to the Unstructured Basic Region of Tat” (mBio, 2019)", "key": {"[1]": {"experiment": "MTT viability assay, 72 h", "assay_type": "cell-based", "conditions": "human, HeLa-CD4-LTR-LacZ cells, mean ± SD, n = 2 to 3", "description": "The assay was performed with MTT [3-(4,5-dimethyl-2-thiazolyl)-2,5-diphenyl-2H-tetrazolium bromide] as described in reference."}, "recombinant Tat": {"biological_target": "T1, recombinant Tat (Human immunodeficiency virus type 1 group M subtype B, UniProt P69697)", "T1 construct": "pTatC6H-1 (NIH AIDS Reagent Program) plasmid encoding C-terminal 6xHistidine Tat1-86 (HXB3, subtype B); made in house; host or cells: E. coli BL21 (plasmid pTatC6H-1, NIH AIDS Reagent Program)", "T1 sequence (P69697 whole entry)": "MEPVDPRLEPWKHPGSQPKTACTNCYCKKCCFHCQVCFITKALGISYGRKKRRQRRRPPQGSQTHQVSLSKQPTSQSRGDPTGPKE", "experiment": "DARTS assay (protection from proteinase K)", "assay_type": "binding, HIV-1", "conditions": "20 min room temperature, Western blot", "description": "To confirm that dCA stabilizes Tat structure, we performed drug affinity responsive target stability (DARTS) assays to measure the protection against proteolysis conferred on the target protein by interaction with a small molecule. For this purpose, we incubated Tat with several concentrations of dCA and different concentrations of proteinase K (PK) for 20 min at room temperature. PK digests proteins preferably after hydrophobic, aliphatic, and aromatic residues. The protection was determined by Western blotting with an anti-His antibody (Fig. 5B). Tat alone was proportionally degraded with increasing concentrations of PK. […] Both the fluorescence assays and the DARTS assays support the notion that dCA stabilizes Tat protein.\ndCA or an analog of dCA (analog 2) was incubated with 30 ng of recombinant Tat for 20 min at room temperature. Then PK (Ambion) was added at different concentrations. The remaining Tat was quantified by Western blotting using polyclonal anti-Tat antibodies (AIDS Reagent Program) at a 1:2,000 dilution."}, "[2]": {"system": "NL4-3 strain in CDK8/CDK19 knockdown cells", "experiment": "NL4-3 infection of CDK8/CDK19 knockdown HeLa CD4 cells", "assay_type": "cell-based, HIV-1", "conditions": "dCA 200 nM, CDK8, CDK19 or CDK8/CDK19 knockdown; viral mRNA and p24", "description": "The only other known ligand for dCA is CDK8. […] As such, virus-like particles (VLPs) expressing short hairpin RNAs (shRNAs) against CDK8, CDK19, CDK8/CDK19, or the shRNA control were transduced into HeLa CD4 cells. Stabilization of the knockdown was performed by puromycin selection of the populations over a 2-week period. Both RT-qPCR and Western blotting confirmed successful knockdown of CDK8/CDK19 proteins (Fig. 4A and B). These cells were then infected with NL4-3 and treated or not with dCA, and production of viral RNA and p24 in the supernatant were assessed 72 hours later. […]\nHeLa CD4 cells were transduced with VLPs expressing shRNAs against CDK8, CDK19, or both and puromycin selected to stabilize knockdown (KD). […], mRNA, DNA, and p24 capsid in supernatant were collected and measured. (A and B) CDK8 mRNA and CDK19 mRNA expression was assessed by qRT-PCR and normalized to GAPDH mRNA. […] (C) Protein expression of CDK8 and CDK19 was analyzed 72 hours postinfection by Western blotting. […] (D) Viral mRNA production measured by qRT-PCR using primers against the Nef region was measured as a function of total integrated proviral DNA. […] Statistical significance was determined using one-way ANOVA with post hoc Tukey’s test. ns, not significant; ns^a, DMSO KD CDK19 versus dCA KD CDK19. *, P < 0.01; ***, P < 0.0001; **, P < 0.001. […]"}, "[3]": {"design": "method as in PMID 22817991, PMID 29045830, PMID 25613133", "conditions": "cited from earlier work"}, "[4]": {"design": "method as in PMID 22817991, PMID 29045830, PMID 25613133", "conditions": "mice; cited from earlier work"}, "HIV": {"system": "HIV", "design": "method as in PMID 29045830", "conditions": "dCA added to ART-suppressed mice; cited from earlier work"}}}
{"smiles": "CN(C)C1CC23CCC4(O2)C(=CCC2(C)C(c5ccc6ccncc6c5)=CCC24)C=C3C(O)C1O", "note": "(stereo not drawn) [dCA, didehydro-cortistatin A]", "values": [{"measurement": "CC50 at 72 h", "setting": "[1]", "result": 20, "unit": "µM"}, {"measurement": "protection of Tat from proteinase K degradation", "setting": "recombinant Tat", "result": "Tat degradation by PK was significantly reduced"}, {"measurement": "dependence of anti-HIV activity on CDK8", "setting": "[2]", "result": "does not mediate its anti-HIV activity through CDK8 inhibition"}, {"measurement": "solubility in water", "setting": "[3]", "result": "very soluble in water"}, {"measurement": "bioavailability", "setting": "[4]", "result": "good bioavailability in mice"}, {"measurement": "in vivo efficacy", "setting": "HIV", "result": "systemically reduced viral mRNA in tissues and significantly delayed and reduced viral rebound levels upon treatment interruption"}]}
